Measured values taken from publication PMC2841647 (PLoS ONE, 2010).
“And” between values parts separate entries of the source, which are not always exact repeats. Equal entries are not always repeated. Where two headings read alike, the source gives them in different places. Where a SMILES comes first, the peptide text is derived from it. Bridges are numbered along the chain shown (N, C = ends).

Columns and labels:
[1] = target: T1, native TrkB receptors in cortical neurons (Mus musculus, UniProt P15209); test: KIRA-ELISA (TrkB tyrosine phosphorylation) in primary cortical neurons; type: cell-based; conditions: for EC50: read-out: EC50, TrkB activation
T1 construct: cortical neurons naturally express TrkB receptors; endogenous in cells; host or cells: primary cortical neurons from E16 mouse embryos
From the text: (§1) The human recombinant TrkB receptor was fluorescently tagged at its C-terminus with the Enhanced cyan fluorescent protein (rhTrkB-ECFP) by cloning the full human TrkB sequence (kindly provided by G. M. Brodeur) into the pECFP-N1 expression vector (Clontech). For inducible expression, rhTrkB-ECFP was subcloned into the tetracycline-responsive (TetOn) vector pTRE2 (Clontech). Chinese Hamster Ovary cells stably expressing rhTrkB-ECFP (TetOn-rhTrkB cells), were produced by transfection of the pTRE2-rhTrkB-ECFP plasmid into CHO-K1 TetOn cells (Clontech) followed by clone selection in 0.25 mg/ml hygromycin B (Invitrogen) and 0.1 mg/ml geneticin (G418; Invitrogen). Resistant cells were selected based on both fluorescence intensity and KIRA-ELISA profile after an overnight incubation in presence of 1000 ng/ml doxycycline (Clontech). Cortical neurons were prepared and cultured from E16 mouse embryos as described previously. The nnr5 PC12-TrkA, nnr5 PC12-TrkB and nnr5 PC12-TrkC cells (kindly provided by M. V. Chao) are NGF non-responding mutant PC12 cells stably transfected with TrkA, TrkB and TrkC cDNA, respectively.
(§2) TrkB activity was quantified using the previously described KIRA-ELISA assay with slight modifications. Cortical neurons were seeded on polyornithin-coated flat-bottom 96-well culture plates (12×10^4 cells per well) and cultured eight days at 37°C in 5% CO2. TetOn-rhTrkB cells were seeded on flat-bottom 96-well culture plates (4×10^4 cells per well) and incubated overnight with 1000 ng/ml doxycycline (Figs. S1,S2) except when indicated. Fluorescence levels in TetOn-rhTrkB cells were verified before each assay. […] Assay was stopped by removing the medium on ice and membranes were solubilized using KIRA-ELISA solubilization buffer (NaCl 150 mM, Hepes 50 mM, Triton X-100 0.5%, thimerosal 0.01%, sodium orthovanadate 2 mM, supplemented with a cocktail of protease inhibitors) for 1 h at room temperature. Solubilized membranes were transferred for 2 h at room temperature onto ELISA microtiter plate (Nunc Maxisorp) pre-coated overnight at 4°C with appropriate antibodies [polyclonal anti-GFP (1∶5000, Clontech) for TetOn-rhTrkB, polyclonal anti-TrkB (1 µg/ml, Upstate) for cultured neurons and brain slices, for phosphorylation assays; monoclonal anti-GFP (1∶3000, Chemicon) for TetOn-rhTrkB, monoclonal anti-TrkB (1∶1000, BD Biosciences) for cultured neurons and brain slices, for total TrkB quantification]. […] Absorbance was read at 450 nm after addition of 3,3′,5′,5-tetramethyl-benzidine substrate (Sigma) and acidification with 1N hydrochloric acid.
(§3) Concentration-response and competition curves were obtained using an iterative least-squares method derived from that of Parker & Waud (1971). […] Concentration-response curves and Eadie-Hofstee plots were analyzed using two-way ANOVA. Significance over time in locomotor activity studies was given using two-way ANOVA followed by Bonferroni's post-hoc test. […] One-way ANOVA followed by post-hoc Dunnett's test was used to evaluate statistical significance compare to saline group in EPM and FST procedures. n represents the number of independent experiments.

[2] = test system: mice; test: Forced swim test (FST); type: in vivo, mouse; conditions: acute treatment, vs saline
Description: (§4) Mice were treated as described above before being subjected to behavioral studies. Predictive estimation for anxiolytic properties of tat-cyclotraxin-B was assessed using open field and elevated plus-maze (EPM). Antidepressant-like action of tat-cyclotraxin-B was assessed with the forced-swim test (FST). Effects of acute treatment with tat-cyclotraxin-B on spontaneous locomotion, exploration and reactivity to a novel open field was assessed in plexiglas activity chambers (Med Associates; 45×45×31 cm). Mice were placed into the center of the open field, and activity was recorded for 30 min. Testing took place under bright ambient light conditions to increase the anxiety component of the center areas of the field (defined as the central 15×15 cm portion). Mice subjected to EPM received a double 90-interval i.v. injection of tat-cyclotraxin-B or saline buffer before being placed on the platform of the EPM and assessed for 5 min (26×5×36 cm). The diazepam control group consisted of saline buffer double-treated mice that further received a 30-min i.p. injection of diazepam (1 mg/kg). Mice were assessed for number of entries and amount of time spent in open versus closed arms. The FST procedure was applied to treated mice as described by Porsolt et al. (see ref. [60]). Mice were dropped individually into glass cylinder (height, 25 cm; diameter, 10 cm) containing 10 cm water height, maintained at 23–25°C. Animals were tested for a total of 6 min. The total time of swimming, the number of climbing attempts and the time of immobility was recorded during the last 4 min of the session, after 2 min of habituation. The paroxetine control group consisted of saline buffer double-treated mice that further received a 30-min i.p. injection of paroxetine (2 mg/kg). Behaviors were recorded on videotape and scored blind.

[3] = test system: nnr5 PC12-TrkB cells; conditions: 48 h
[4] = test system: nnr5 PC12 cells; test: Morphological analysis of toxicity / cell death; type: cell-based; conditions: 72 hours after exposure to 10 µM
[5] = target: T2, human TrkB receptor (Homo sapiens, UniProt Q16620); test: KIRA-ELISA (TrkB tyrosine phosphorylation) in TetOn-rhTrkB CHO cells; type: cell-based; conditions: for IC50 / ratio signal/background / EC50: TetOn-rhTrkB cells; for EC50: read-out: EC50, TrkB activation
T2 construct: expressed in transfected cells
From the text: as §1, §2, §3

[6] = target: T3, TrkB in brain slices (Mus musculus, UniProt P15209); test: KIRA-ELISA in brain slices incubated with peptide; type: cell-based; conditions: peptide added to brain slices
T3 construct: KIRA-ELISA analysis of brain TrkB receptors from mice; from tissue; host or cells: adult Swiss mouse brain, 300-µm coronal slices
Description: TrkB activity was quantified using the previously described KIRA-ELISA assay with slight modifications. Cortical neurons were seeded on polyornithin-coated flat-bottom 96-well culture plates (12×10^4 cells per well) and cultured eight days at 37°C in 5% CO2. TetOn-rhTrkB cells were seeded on flat-bottom 96-well culture plates (4×10^4 cells per well) and incubated overnight with 1000 ng/ml doxycycline (Figs. S1,S2) except when indicated. Fluorescence levels in TetOn-rhTrkB cells were verified before each assay. […] Solubilized membranes were transferred for 2 h at room temperature onto ELISA microtiter plate (Nunc Maxisorp) pre-coated overnight at 4°C with appropriate antibodies [polyclonal anti-GFP (1∶5000, Clontech) for TetOn-rhTrkB, polyclonal anti-TrkB (1 µg/ml, Upstate) for cultured neurons and brain slices, for phosphorylation assays; monoclonal anti-GFP (1∶3000, Chemicon) for TetOn-rhTrkB, monoclonal anti-TrkB (1∶1000, BD Biosciences) for cultured neurons and brain slices, for total TrkB quantification]. […] Absorbance was read at 450 nm after addition of 3,3′,5′,5-tetramethyl-benzidine substrate (Sigma) and acidification with 1N hydrochloric acid.

[7] = test system: mice; test: Elevated plus-maze (EPM); type: in vivo, mouse; conditions: vs saline
Description: as §4

[8] = TrkB + p75NTR co-expressing cortical neurons

T2 sequence (Q16620 32-822): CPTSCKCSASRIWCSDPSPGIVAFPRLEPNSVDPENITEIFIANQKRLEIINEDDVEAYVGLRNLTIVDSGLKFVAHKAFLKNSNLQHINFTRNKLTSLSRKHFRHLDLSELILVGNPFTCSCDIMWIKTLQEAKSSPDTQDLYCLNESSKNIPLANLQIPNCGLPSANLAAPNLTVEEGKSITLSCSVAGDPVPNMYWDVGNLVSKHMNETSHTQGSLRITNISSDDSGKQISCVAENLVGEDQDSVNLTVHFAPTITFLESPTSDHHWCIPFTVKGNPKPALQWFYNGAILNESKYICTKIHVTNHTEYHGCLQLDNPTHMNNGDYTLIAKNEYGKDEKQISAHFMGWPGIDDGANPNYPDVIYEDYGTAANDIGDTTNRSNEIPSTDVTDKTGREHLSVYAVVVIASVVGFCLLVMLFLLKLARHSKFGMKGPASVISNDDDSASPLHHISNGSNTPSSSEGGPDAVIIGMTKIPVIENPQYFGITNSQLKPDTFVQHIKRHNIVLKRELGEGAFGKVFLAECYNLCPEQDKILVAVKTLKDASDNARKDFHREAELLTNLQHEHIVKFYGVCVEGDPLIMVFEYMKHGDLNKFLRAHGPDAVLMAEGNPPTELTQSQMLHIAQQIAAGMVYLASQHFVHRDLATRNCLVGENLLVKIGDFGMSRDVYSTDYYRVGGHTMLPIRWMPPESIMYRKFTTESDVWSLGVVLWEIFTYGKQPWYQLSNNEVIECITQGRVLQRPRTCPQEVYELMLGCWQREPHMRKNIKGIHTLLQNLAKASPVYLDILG
T1 sequence (P15209 32-821): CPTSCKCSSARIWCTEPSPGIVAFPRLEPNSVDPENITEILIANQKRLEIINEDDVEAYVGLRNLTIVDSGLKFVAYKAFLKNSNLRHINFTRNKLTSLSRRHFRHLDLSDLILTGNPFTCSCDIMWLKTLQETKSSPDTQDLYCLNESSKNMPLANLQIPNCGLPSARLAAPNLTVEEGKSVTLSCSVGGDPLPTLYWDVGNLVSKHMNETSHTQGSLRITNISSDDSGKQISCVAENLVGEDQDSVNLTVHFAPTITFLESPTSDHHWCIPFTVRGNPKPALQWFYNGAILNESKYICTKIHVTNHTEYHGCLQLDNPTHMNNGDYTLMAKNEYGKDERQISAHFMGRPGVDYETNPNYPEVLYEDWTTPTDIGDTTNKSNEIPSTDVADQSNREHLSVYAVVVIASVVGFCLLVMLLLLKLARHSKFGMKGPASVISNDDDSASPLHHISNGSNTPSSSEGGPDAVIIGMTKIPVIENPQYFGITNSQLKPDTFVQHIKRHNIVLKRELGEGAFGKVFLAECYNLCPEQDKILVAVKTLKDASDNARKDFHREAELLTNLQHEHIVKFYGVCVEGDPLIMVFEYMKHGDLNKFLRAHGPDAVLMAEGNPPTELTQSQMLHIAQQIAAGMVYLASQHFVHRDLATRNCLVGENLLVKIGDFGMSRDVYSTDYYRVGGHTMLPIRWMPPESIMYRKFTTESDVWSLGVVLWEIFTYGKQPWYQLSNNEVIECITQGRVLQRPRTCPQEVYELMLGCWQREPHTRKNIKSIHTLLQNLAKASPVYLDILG
T3 sequence (P15209 32-821): as above

Molecule: C[C@@H]1C[C@H]2[C@@H]3CCC4=CC(=O)C=C[C@]4(C)[C@@]3(F)[C@@H](O)C[C@]2(C)[C@@]1(O)C(=O)CO [dexamethasone, reference compound]
- TrkB phosphorylation (indirect activation) ([1]; cortical neurons, 1 µM, 2 h): significantly triggered

Molecule: Fc1ccc([C@@H]2CCNC[C@H]2COc2ccc3c(c2)OCO3)cc1 [paroxetine, reference compound]
- FST climbing attempts [2]: increased
- FST time of immobility [2]: significant decreased

Molecule: CSCC[C@@H]1NC(=O)[C@@H]2CCCN2C(=O)[C@H](CC(N)=O)NC(=O)[C@@H](N)CSSC[C@@H](C(=O)O)NC(=O)CNC(=O)[C@H](CCC(=O)O)NC(=O)[C@H](CCCCN)NC(=O)[C@H]([C@@H](C)O)NC(=O)[C@H](Cc2ccc(O)cc2)NC(=O)CNC1=O [cyclotraxin-B] (H-CNPMGYTKEGC-OH; disulfide 1-11; N-terminus and C-terminus assumed)
- IC50 [3]: 0.0122 ± 0.0085 nM
- IC50 ([1]; cortical neurons, with BDNF, read-out: IC50, inhibition of BDNF-induced TrkB activity): 0.0671 ± 0.0189 nM
- IC50 ([1]; neurons, without BDNF, read-out: IC50, BDNF-independent (basal) TrkB activity): 0.0657 ± 0.0217 nM
- cell death [4]: no cell death
- IC50 ([5]; with BDNF, read-out: IC50, inhibition of BDNF-induced TrkB activity): 0.3 ± 0.07 nM
- IC50 ([5]; without BDNF, read-out: IC50, BDNF-independent (basal) TrkB activity): 0.28 ± 0.08 nM

Molecule: YGRKKRRQRRR [tat-empty, reference compound]
- TrkB inhibition in brain slices [6]: did not produce any effect

Molecule: CN1C(=O)CN=C(c2ccccc2)c2cc(Cl)ccc21 [diazepam, reference compound]
- EPM number of entries in open arms [7]: significantly increased
- EPM time spent in open arms [7]: significantly increased

Molecule: NGF: neurotrophin
- KIRA-ELISA signal ([1]; neuronal cells): did not produce any signal
- KIRA-ELISA signal ([5]; recombinant cells): did not produce any signal

Molecule: NT-3: neurotrophin
- agonist behaviour at TrkB [1, 8]: partial agonist
- ratio signal/background [1, 8]: 1.7
- EC50 ([1]; neuronal TrkB receptors): 0.716 ± 0.167 nM
- ratio signal/background [5]: 3.8
- EC50 [5]: 0.702 ± 0.134 nM

Molecule: COC(=O)[C@@]1(O)C[C@H]2O[C@]1(C)n1c3ccccc3c3c4c(c5c6ccccc6n2c5c31)C(=O)NC4 [K252a, reference compound]
- reversal of BDNF signal ([5]; KIRA-ELISA, BDNF 4 nM, TetOn-rhTrkB cells and cortical neurons (Fig. S2)): fully reversed

B1: BDNF: neurotrophin, cognate ligand of TrkB; mature recombinant human BDNF (Peprotech) (protein, UniProt P23560 19-247, looked up)
Neurotrophic factor BDNF …: APMKEANIRGQGGLAYPGVRTHGTLESVNGPKAGSRGLTSLADTFEHVIEELLDEDQKVRPNEENNKDADLYTSRVMLSSQVPLEPPLLFLLEEYKNYLDAANMSMRVRRHSDPARRGELSVCDSISEWVTAADKKTAVDMSGGTVTVLEKVPVSKGQLKQYFYETKCNPMGYTKEGCRGIDKRHWNSQCRTTQSYVRALTMDSKKRIGWRFIRIDTSCVCTLTIKRGR
- EC50 ([1]; cortical neurons, agonist alone): 0.186 nM and 0.208 nM
- ratio signal/background [5]: 3.94
- EC50 ([5]; agonist alone): 0.672 nM and 0.614 nM
